Source: ChEMBL document CHEMBL4325872, “Identification of Selective Dual ROCK1 and ROCK2 Inhibitors Using Structure-Based Drug Design” (J Med Chem, 2018)
Values after ≈ are worked out from the molar mass of the structure shown.

Tests used:
in vitro = settings: PAMPA

## COc1cccc([C@@H](C)NC(=O)c2ccc(-c3ccncn3)cc2N2CCC[C@@H](CN)C2)c1
physchem
  solubility: 51.2 µM (≈ 22.8 µg/mL)
In vitro
  Papp: 2.5 ×10⁻⁶ cm/s

## COc1cccc([C@@H](C)NC(=O)c2ccc(-c3ccncn3)cc2N2CC[C@@H](CN)C2)c1
physchem
  solubility: 63.9 µM (≈ 27.6 µg/mL)
In vitro
  Papp: 1.4 ×10⁻⁶ cm/s

## COc1cccc([C@@H](C)NC(=O)c2ccc(-c3ccncn3)cc2N2CCC[C@H](CN)C2)c1
physchem
  solubility: 65.5 µM (≈ 29.2 µg/mL)
In vitro
  Papp: 2.6 ×10⁻⁶ cm/s
